Key:
[1] = test system: eGFP− 4T1 cells; assay: In vitro PDT with rose bengal and blue laser light, MTT analysis; format: cell-based, Mus musculus; settings: 473 nm laser light after RB treatment, similar conditions, FIG. 2A
Procedure: The photo inducing death of GFP− and GFP+ cells after blue light irradiation was measured by MTT analysis in the presence or absence of rose bengal (RB). The specific experimental procedure is as follows.
RB was diluted with DMEM containing 10% FBS to produce RB at concentrations of 6.25, 12.5, 25, 50, and 100 μM. GFP− and GFP+ cells were pre-incubated in 96-well, black, and clear bottom plates at a density of 2×10^4 cells per well. Then cells were incubated with RB for 4 hours. The addition of a fresh culture medium without photosensitizer to the wells was performed. This was used as an untreated control. Cells were washed 3 times with PBS buffer.
In the PDT-treated group, the cell was irradiated with blue laser light (473 nm, radiation dose rate=80 mW/cm^2) for 1 to 60 seconds. The toxicity of pure RB on GFP+ and GFP− cells was measured in the dark room. After the irradiation, the fresh culture medium was added to the wells, and cells were cultured again for 24 hours. The medium was then measured by MTT assay. […] The absorbance of the reaction solution was measured at 570 nm. Cell viability was calculated by the following equation: […]
Each experiment was performed independently. Cell death was measured by LDH analysis.
Th cells were seeded on a 24-well plate at a density of 5×10^4 per well. […] The absorbance was measured at 490 nm using a plate reader.

[2] = test system: Lgr5+ cells; assay: cFRET PDT of colon polyps in azoxymethane/DSS-treated GFP-Lgr5 mice; format: in vivo, mouse; settings: FIG. 4E
Procedure: To generate sporadic tumors, azoxymethane (10 mg/kg) was intraperitoneally injected into wild-type mice or GFP-Lgr5 mice. In one week after injection, mice were given 2% DSS as drinking water for 7 days. The next 7 days, the mice were given water normally. This DSS application cycle was repeated three times. Mice were randomly divided into 4 groups (n=5 per group).
Another group of 5 mice as wild-type and GFP-Lgr5 mice was set to a group that was not chemically treated. RB was intravenously injected (50 nM/mL, 0.75 ml/kg) into the wild type and GFP-Lgr5 mice of each experimental group twice a week for 7 weeks. And, in 4 hours after the RB injection, blue light (2 min) irradiation was performed via an anal penetration.
Polyp growth was monitored by endoscopy via polyp diameter measurements. After anesthesia, the mice were placed on the stage for colonoscopy. […] Each image was captured by capturing the image from the recorded video file using frame-extraction software. The tumor size was measured from the images (width×height×2). The distance-dependent magnification of the colonoscopy was calculated by imaging using a ruler in the same field.
To compare tumor sizes before and after FR-PDT, well-isolated tumors were selected. The locomotion path used in […] was recorded in detail for each tumor. The tumor location is determined based on the structure of the surrounding tissue. […]

[3] = test system: eGFP+ and eGFP− H460 and B16F10 tumors; assay: Tumor-transplanted animal test (cFRET PDT); format: in vivo, mice
Procedure: B 16F10 and GFP-B16-F0 Melanoma cells were harvested using a cell lifter and were resuspended in serum-free DMEM. Approximately 2×10^6/100 μL of B16F10 and GFP-B16-F0 melanoma cells were subcutaneously injected into both sides of female C57BL/6 mice. After 10 to 15 days, mice were divided into 4 groups based on the mean tumor diameter when the mean tumor diameter reached a minimum of 0.3 cm. The mice were then randomly divided into 4 groups (n=5 per group). Control animals received 0.9% saline instead of chemical substance.
In the experimental group, RB ([…], 53 nM/mL) was intravenously administered thereto twice a week, and blue light (2 min) was irradiated to the tumor site in 4 hours after the injection. The mouse body weight and tumor volume were measured twice a week. Three weeks later, the mice were euthanized. Tumors were removed therefrom and fixed to 10% neutral buffered formalin. The next day, the image was captured. Similar experiments were performed on GFP+ and GFP-H460 cells. About 2×10^6/100 μL of cells were injected subcutaneously into both sides thereof.

[4] = test system: eGFP+-Lgr5+ cells; assay: Visualization of in vivo cell death with FLIVO probe; design: species or system mouse; settings: Lgr5-EGFP-IRES-creERT2 knock-in mice, RB treatment and laser light irradiation
Procedure: To measure cell death in live animals, FLIVO™ probes were diluted with PBS containing 1% DMSO at doses according to animal weight. The fluorescent red probe FLIVO™ (Immunochemistry Technologies LLC, Abcys SA, Paris, France) was intravenously injected into wild type and GFP-Lgr5 mice. The mouse was euthanized after 1 hour and the colon tissue was separated therefrom. Fluorescent signals from FLIVO™ were imaged using a confocal microscope.

## O=C1OC2(c3cc(I)c(O)c(I)c3Oc3c2cc(I)c(O)c3I)c2c(Cl)c(Cl)c(Cl)c(Cl)c21 [RB, rose bengal]
[1]
  eGFP− cells killed: 20%
[2]; Lgr5-EGFP-IRES-creERT2 knock-in mice compared to wild-type mice, 473 nm laser, 4F
  polyp growth: polyp growth was inhibited
[2]; cFRET treatment
  number of polyps: decreased
[3]; GFP+ B16F10 cells in mouse, 473 nm laser light, FIG. 3D, 3E
  tumor growth: remarkable tumor inhibiting effect
[3]; mixture of eGFP+ and eGFP− sublines of H460 and B16F10 grafted to mouse, after second round of 473 nm irradiation, FIG. 3B, 3C
  eGFP+ cells removed in grafted tumor: ~80%
[4]
  cell death signal in eGFP+-Lgr5+ cell region versus adjacent low-GFP-expression region: stronger

From US20190365927A1, “COMPOSITION FOR PHOTODYNAMIC THERAPY USING GENE EXPRESSING FLUORESCENT PROTEIN AND PHOTOSENSITIZER, AND PHOTODYNAMIC THERAPY METHOD USING SAME” (priority 2017, published 2019)
